The text below walks through data of ChEMBL document CHEMBL5727761, “1-cyano-pyrrolidine compounds as USP30 inhibitors” (2020).

For the experiment, the target named is T1, Ubiquitin carboxyl-terminal hydrolase 30 (Homo sapiens, UniProt Q70CQ3).
T1 sequence (Q70CQ3 whole entry): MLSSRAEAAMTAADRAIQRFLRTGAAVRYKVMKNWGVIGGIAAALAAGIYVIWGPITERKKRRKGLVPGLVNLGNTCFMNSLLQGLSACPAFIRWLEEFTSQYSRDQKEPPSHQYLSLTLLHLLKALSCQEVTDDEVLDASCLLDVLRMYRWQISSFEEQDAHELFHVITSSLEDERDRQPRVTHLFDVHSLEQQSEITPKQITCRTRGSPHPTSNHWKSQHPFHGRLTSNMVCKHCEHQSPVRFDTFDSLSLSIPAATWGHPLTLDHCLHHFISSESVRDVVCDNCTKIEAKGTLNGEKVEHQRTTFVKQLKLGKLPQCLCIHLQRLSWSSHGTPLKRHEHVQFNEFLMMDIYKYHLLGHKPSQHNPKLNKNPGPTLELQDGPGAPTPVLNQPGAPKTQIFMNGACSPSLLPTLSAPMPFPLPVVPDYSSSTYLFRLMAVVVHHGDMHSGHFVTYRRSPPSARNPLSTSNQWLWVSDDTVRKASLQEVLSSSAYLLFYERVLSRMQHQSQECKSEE
The experiment can be described thus: Biochemical Fluorescence Intensity Kinetic Assay/Biochemical Fluorescence Intensity Assay: USP30 Biochemical Fluorescence Intensity Kinetic Assay.Reactions were performed in duplicate in black 384 well plates (small volume, Greiner 784076) in a final reaction volume of 21 μl. USP30 CD (Boston Biochem E-582 or 57-517, #64-0057-050 Ubiquigent) was diluted in reaction buffer (40 mM Tris, pH 7.5, 0.005% Tween 20, 0.5 mg/ml BSA, 5 mM beta-mercaptoethanol) to the equivalent of 0, 0.0005, 0.001, 0.005, and 0.01 μl/well. Buffer was optimised for optimal temperature, pH, reducing agent, salts, time of incubation, and detergent. Reactions were initiated by the addition of Ubiquitin-Rhodamine 110 (U-555, Boston Biochem) at a final concentration of 100 nM. Reactions were incubated at room temperature and read every 2 min for 120 min. Readings were performed on a Pherastar Plus (BMG Labtech). […] A typical 8-point dilution series would be 100, 30, 10, 3, 1, 0.3, 0.1, 0.03 μM final. Reactions were performed in duplicate in black 384 well plates (small volume, Greiner 784076) in a final reaction volume of 21 μl. Either 1 μl of 50% DMSO or diluted compound was added to the plate. USP30 was diluted in reaction buffer (40 mM Tris, pH 7.5, 0.005% Tween 20, 0.5 mg/ml BSA, 5 mM beta-mercaptoethanol) to the equivalent of 0.001 μl/well and 10 μl of diluted USP30 was added to the compound. […].

What is called IC50 is the concentration that gives 50% inhibition.

As for `N#CN1C[C@H]2CCN(C(=O)N3CCc4ccccc43)[C@H]2C1`, the IC50 entry was “in the range around 5.5 µM”.

On to `N#CN1CC[C@@H](NC(=O)c2ccc(N3CCOCC3)cc2)C1`, for which the IC50 entry was “in the range around 0.55 µM”.
